What was measured:
[1] = system: IgE-dependent allergic dermatitis; settings: mouse, in vivo
Method: Using a triphase dermatitis model that can be induced by antigen in mouse passively sensitizationed with IgE, the actions of CB2 inverse agonist and CB2 agonist were examined.
*Animal: 8 to 10 weeks-old Female BALB/c mouse (Japan SLC Inc.) was used.
Preparation of solvent: MC was dissolved in distilled water to prepare an aqueous 0.5% MC solution.
Anti-DNP IgE (antibody against DNP; Yamasa Corp.) was prepared to 15 μg/mL with physiological saline. 0.2 mL of the resulting solution was given through the caudal vein to the mouse.
Antigen preparation: 0.15% (w/v) of DNFB (2,4-dinitrofluorobenzene) was prepared in a mixed solution of acetone and olive oil (3:1, v/v) on needed basis.
Antigen application: 25 μl of the antigen solution was applied on each side of both of the ears 24 hours after the administration of the anti-DNP IgE.
From the next day of the antigen application to day 8 after the antigen application, 10 mL/kg test compound was orally administered once a day 9 times in total. On the day of antigen application, the test compound was administered one hour before the antigen application and the test compound was administered one hour before the measurement of the thickness of the ear on day 8 after the antigen application.
Before and 8 days after the antigen application, the thickness of the ear was measured with a dial thickness gauge (Mitutoyo Corp.). The difference between the value measured before the antigen application and at each time point was used as an index of swelling.
After the measurement of ear swelling, spleen and thymus were harvested to weigh their wet weights.

[2] = system: human basophils; assay: leukotriene production from human basophils; assay type: cell-based; settings: anti-human IgE antibody stimulation; IL-3 preincubation
Method: To act them on cells, the solutions were further diluted to 10 μM to 0.01 μM (0.1% DMSO solution).
Using a syringe charged with 3.8% sodium citrate solution, 100 mL blood was obtained from human blood.
Using 10× HBSS (−) (10×Hank's balanced salt solution, GIBCO), Percoll (Amersham) and Milli Q water, 1.070 g/mL, 1.079 g/mL and 1.088 g/mL Percoll-HBSS (−) were prepared and layered, and the obtained blood was loaded on the layers and centrifuged at 300× g for 25 minutes. A cell fraction between the 1.070 g/mL Percoll-HBSS (−) layer and the 1.079 g/mL Percoll-HBSS (−) layer was recovered. 3 volumes of HBSS (−) was added to the recovered cell suspension and centrifuged at 300× g at 4° C. for 7 minutes. After centrifugation, the supernatant was discarded and the cells were rinsed once with HBSS (−). Thus recovered cell population was used as the basophils.
The basophils were prepared to 2.5×10^6 cells/mL with Tyrode solution, and 10 μg/mL recombinant human IL-3 (Genzyme/Techne) was added to a final concentration of 100 ng/mL. Immediately thereafter, 80 μL/well ([…]) of basophils were seeded on a round-bottom 96-well plate and were incubated in 5% CO2 at 37° C. for 30 minutes.
After preincubation, 10 μL/well of the above-described test compound was added and incubated in 5% CO2 at 37° C. for 10 minutes. […]

[3] = system: spontaneous scratching reaction; assay: spontaneous scratching reaction of NC mouse; assay type: in vivo; settings: NC/Jic mice; oral once a day for 3 weeks; vs solvent control
From the text: Currently, NC mouse is used as an animal model of atopic dermatitis. No dermatitis or scratching action is observed when the mouse is kept in an environment under the control of atmospheric microorganisms (in SPF environment). However, when the mouse is kept in a conventional environment, scratching action together with the onset of dermatitis can be observed from about week 8 and the symptom progresses into chronic symptom (J. Dermatol. Sci., 25, 20-28, 2001).
Preparation of solvent: MC was dissolved in tap water to prepare an aqueous 0.5% (w/v) MC solution.
As positive controls, betamethasone valerate (Sigma) and tacrolimus hydrate (extracted from Prograf (Fujisawa Pharmaceutical Co., Ltd.)) were similarly prepared to 1 mg/mL. Betamethasone valerate is one of the adrenocorticosteroids that is considered to be effective for the treatment of atopic dermatitis. Tacrolimus hydrate is a therapeutic agent of atopic dermatitis which is known as an immunosuppressor as described above.
The mice (A) were taken away from the cage and the NC/Jic mice were used at the age of 16 weeks.
Breeding conditions: The mice were fed with solid feed CA-1 (CLEA JAPAN INC.) ad libitum and tap water as drinking water ad libitum, and kept at a temperature of 22±2° C. and a humidity of 55±10% under lighting from 8:00 a.m. to 20:00 p.m.
From 10 days before the start of the experiment, the number of scratching behavior with hind legs of the mice was visually counted (for 20 minutes; once daily) over 2 days or 3 days. Among the plural mice counted, mice with 50 or more average scratching movements per day were selected for use.
The behavior of the mice was filmed under unattended environment with a video camera to count the scratching motion with hind legs for one hour. […] This series of scratching motions was counted as one scratching movement, and all such scratching movements were counted irrespective of scratched sites. The measurement was done on the starting day of administration, and one day, 3, 6, 10, 13, 17 and 20 days after the start of administration. […]

[4] = target: CB2 (Homo sapiens, UniProt P34972); design: host or cells: CHO cells expressing CB2; settings: cited from earlier work
Sequence of CB2 (P34972 whole entry, species assumed): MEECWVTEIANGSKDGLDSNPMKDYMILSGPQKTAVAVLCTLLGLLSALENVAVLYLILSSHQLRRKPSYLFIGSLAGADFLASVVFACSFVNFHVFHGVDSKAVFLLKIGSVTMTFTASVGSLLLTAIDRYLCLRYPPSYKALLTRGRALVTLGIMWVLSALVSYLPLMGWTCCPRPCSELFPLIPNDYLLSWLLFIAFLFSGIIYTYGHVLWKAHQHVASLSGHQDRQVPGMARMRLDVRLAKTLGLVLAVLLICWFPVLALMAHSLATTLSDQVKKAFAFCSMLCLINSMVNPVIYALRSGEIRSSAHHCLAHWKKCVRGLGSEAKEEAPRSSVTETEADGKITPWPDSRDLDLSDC

For `CCCCCOc1c(OC)ccc2cc(C(=O)NCc3ccc4c(c3)OCO4)c(=O)[nH]c12` [Compound A, N-(benzo[1,3]dioxol-5-ylmethyl)-7-methoxy-2-oxo-8-pentyloxy-1,2-dihydroquinoline-3-carboxamide], the “ear swelling, very late phase” value [1] was “significantly suppressed ear swelling”, the “production of leukotrienes (C4/D4/E4)” value [2] was “suppressive action” and the “number of scratching movements” value [3] was “suppressed the number of scratching movements”. The “forskolin-stimulated cAMP production” value [4] was “elevate the production of cyclic adenosine-phosphate (cAMP)”.
